“Also recorded” adds a separate entry of the source. Like-named read-outs stand apart in the source and are kept apart here.

Test [1] has as its system medulloblastoma cell line, DAOY. In words: Proliferation of medulloblastoma cell line DAOY in vitro. The class given is cell-based, human. As for the experimental part: FIG. 4. […] The medulloblastoma cell line, DAOY, was exposed to 20 μM Compound 100 (squares), 5 μM Compound 100 (triangles), 1 μM Compound 100 (x's) or vehicle only (diamonds) for 3 days.
FIG. 5. […] The medulloblastoma cell line, DAOY, was exposed to 50 μM ATRA (squares), 20 μM ATRA (triangles), 5 μM ATRA (X's) or vehicle only (diamonds) for 3 days.
FIG. 6. […] The medulloblastoma cell line, DAOY, was exposed to 2 mM valproic acid (squares), 1 mM valproic acid (triangles), 0.5 mM valproic acid (X's) or vehicle only (diamonds) for 3 days.
The human medulloblastoma cell line DAOY is available from the American Type Culture Collection (ATCC), P.O. Box 1549, Manassas, Va., 20108, as ATCC No. HTB-186.
The medulloblastoma cell line, DAOY, was exposed to the cantharidin analog, Compound 100 at concentrations of 1 μM, 5 μM and 20 μM and evaluated for cellular proliferation over the course of three days. […] Therefore, Compound 100 even at low concentration is capable of preventing cellular proliferation.
To confirm these observations, cultured DAOY cells were treated with 50 μM, 20 μM, 5 μM or vehicle only for three days and examined for cellular proliferation. […] Consequently, because it has been determined that proliferation of medulloblastoma cells is inhibited by Compound 100, ATRA and valproic acid as single agent, it is reasonable to expect that the combination of compound 100 with each of these compounds or a regimen of all three agents may be effective in the treatment of medulloblastoma.
The medulloblastoma cell line, DAOY, was exposed to the HDAC inhibitor, Compound 205 at 10 μM, ATRA at 50 μM, and the compound 205 at 10 μM combined with ATRA at 50 μM, and evaluated for cellular proliferation over the course of seven days. […] (FIG. 8) Therefore, we have shown that Compound 205 is active against medulloblastoma cell line DAOY.

Test [2] deals with neuroblastoma cell line SHSY xenograft. The test can be described thus: SHSY xenograft in SCID mice. The class given is in vivo. Conditions: measured day 7 and day 14, vs vehicle (FIG. 9). As for the experimental part: SHSY cells (5 million) were implanted subcutaneously in the flank of SCID mice. After the xenografts reached a size of ˜100 cubic mm, treatment was instituted with vehicle alone (control), compound 100 (1.5 mg/kg) or compound 205 (10 mg/kg) daily intraperitoneally for 14 days. Xenograft masses were measured day 7 and day 14 of treatment.
SHSY cells (5 million) were implanted subcutaneously in the flank of SCID mice. After the xenografts reached a size of ˜100 cubic mm, treatment was instituted with vehicle alone (control), Compound 100 (1.5 mg/kg) or Compound 205 (10 mg/kg) daily intraperitoneally for 14 days. Xenograft masses were measured day 7 and day 14 of treatment.

Test [3] deals with neuroblastoma cell line, SH-SY5Y. The test can be described thus: Proliferation of neuroblastoma cell line SH-SY5Y in vitro. Format: cell-based, human. As for the experimental part:
FIG. 1. […] The neuroblastoma cell line, SH-SY5Y, was exposed to Compound 100 for 4 or 7 days at concentrations of 1 μM (squares), 5 μM (triangles), 10 μM (short dashed line), 20 μM (diamonds), 50 μM (long dashed line) or vehicle only (circles).
FIG. 2. […] The neuroblastoma cell line, SH-SY5Y, was exposed to 5 μM Compound 100 (squares), 25 μM ATRA (circles), the combination of 5 μM Compound 100 and 25 μM ATRA (dashed line) or vehicle only (black line) for 4 or 7 days. […]
The human neuroblastoma cell line SH-SY5Y is available from the European Collection of Cell Cultures, Health Protection Agency, Porton Down SP40JG Salisbury, Wiltshire UK, as ECACC No. 94030304.
The neuroblastoma cell line, SHSY5Y, was exposed to the cantharidin analog Compound 100 for 4 or 7 days at concentrations of 1, 5, 10, 20 and 50 μM.
Subsequently, SH-SY5Y cells were exposed to Compound 100 at a concentration of 5 μM, ATRA at 25 μM or the combination of the two drugs at the aforementioned doses for 4 or 7 days. […]

The subject of test [4] is medulloblastoma cell line, DAOY. The note with it: cited from earlier work.
For test [5], the system named is human glioblastoma multiforme. The note with it: cited from earlier work.
For test [6], the system named is medulloblastoma cell line DAOY xenograft tumors. The test can be described thus: DAOY xenograft tumors in SCID mice. Format: in vivo. Conditions: 1.5 mg/kg daily intraperitoneally for 21 days, measured at days 7, 14 and 21 of treatment, vs vehicle (FIG. 7). As for the experimental part: DAOY cells (5 million) were implanted subcutaneously in the flank of SCID mice (Day 0). After the xenografts reached a size of ˜130 cubic mm, treatment was instituted with vehicle alone (control), compound 100 (1.5 mg/kg), or compound 102 (1.5 mg/kg) daily intraperitoneally for 21 days (beginning at day 7). Xenograft masses were measured at days 7, 14 and 21 of treatment.

The next test relates to neuroblastoma. Conditions: given for 6 months to high risk patients after chemotherapeutic, surgical and radiation treatments (Matthay et al., 1999); cited from earlier work.
Test [7] has as its system neuroblastoma cell line, SH-SY5Y. The note with it: cited from earlier work.
Setting [8] is: compound 205 at 10 μM combined with ATRA at 50 μM, seven days (FIG. 8).

In the case of `O=C(CCCCCNC(=O)c1ccccc1S)Nc1cccnc1` [Compound 205], the “rate of cellular proliferation” value in test [1] (Compound 205 at 10 μM alone, seven days, vs vehicle (FIG. 8)) is “decreased rates of cellular proliferation as compared to the control; also recorded: inhibits proliferation of the medulloblastoma cell line DAOY”; in test [1] (setting [8]), “inhibits proliferation of the medulloblastoma cell line DAOY”; in test [1] (compound 205 at 10 μM combined with ATRA at 50 μM, seven days (FIG. 8), listed as compound 205), “marked decrease in the rate of cellular proliferation”. Besides, in test [1] (setting [8]), the synergy in combination entry is recorded as “synergistically active”. The “proliferation of xenograft (xenograft mass)” value (“proliferation of xenograft” below) in test [2] (Compound 205 10 mg/kg daily intraperitoneally for 14 days, 10 mg/kg) is listed as “inhibits the proliferation of the neuroblastoma cell line SHSY xenograft”.

On to `CCCC(CCC)C(=O)O` [valproic acid, reference compound], for which the inhibition of proliferation result in test [1] (valproic acid at 2 mM, 1 mM or 0.5 mM, three days (FIG. 6)) was “inhibits proliferation of medulloblastoma cells; also recorded: inhibition of proliferation”; in test [3] (2.5 mM valproic acid and 10 μM ATRA (FIG. 3)) it was “exhibited inhibition of proliferation”. In test [3] (2.5 mM valproic acid alone (FIG. 3)), the proliferation entry is on record as “proliferation was greatly reduced”. Moreover, the cell proliferation result in test [4] (0.6 mmol/L valproic acid, 21 days (Li, et al., 2005)) was “suppressed cell proliferation”; in test [4] (1 mmol/L valproic acid, 10 days (Li, et al., 2005)), “suppressed cell proliferation”.

With `CN1CCN(C(=O)C2C(C(=O)O)[C@H]3CC[C@@H]2O3)CC1` (stereo partly shown) [Compound 100], the “inhibition of human cancer cells in vitro” value in test [5] (Compound 100 in combination with trichostatin A (PCT/US2007/003095)) and in test [5] (Compound 100 in combination with valproic acid (PCT/US2007/003095)) was “better then would be expected from the combination of the agents alone” each time. Besides, the cellular proliferation result is “highly effective in preventing cellular proliferation” in test [5] (combination of ATRA with Compound 100, human glioblastoma multiforme (PCT/US2007/003095)) and “slightly stimulates cellular proliferation” in test [3] (Compound 100 at low doses). The “rate of cellular proliferation” value in test [1] (20 μM Compound 100, three days (FIG. 4, squares)) is reported as “greatest decrease in cellular proliferation”; in test [1] (Compound 100 at 1 μM, 5 μM and 20 μM, three days, vs vehicle (FIG. 4)), “inhibits proliferation of medulloblastoma cells; also recorded: decreased rates of cellular proliferation as compared to the control”. Moreover, the “inhibition of cellular proliferation” value in test [3] (5 μM Compound 100 alone, 4 or 7 days (FIG. 2)) was “failed to significantly inhibit cellular proliferation”; in test [3] (combination of 5 μM Compound 100 and 25 μM ATRA, day 4 and day 7 (FIG. 2)), “inhibits proliferation of neuroblastoma cells”; in test [3] (combination of 5 μM Compound 100 and 25 μM ATRA, day 4 and day 7 (FIG. 2), listed as compound 100), “potentiated the extent of inhibition by ATRA”. Further, the proliferation inhibition result was “exhibited high levels of proliferation inhibition” in test [3] (10 μM ATRA and 10 μM Compound 100 (FIG. 3)); “exhibited high levels of proliferation inhibition” in test [3] (2.5 mM valproic acid and 10 μM Compound 100 (FIG. 3)); “severely inhibits proliferation of neuroblastoma cells; also recorded: exhibited high levels of proliferation inhibition” in test [3] (2.5 mM valproic acid, 10 μM ATRA and 10 μM Compound 100 (FIG. 3)). For the same molecule, in test [3] (10 μM Compound 100 alone (FIG. 3)), the proliferation result is recorded as “proliferation was greatly reduced”. In test [3] (10 μM Compound 100 with 10 μM ATRA, 2.5 mM valproic acid or both (FIG. 3)), the synergy in combinations entry was “synergistically enhanced the activity of ATRA, valproic acid and valproic acid in combination with ATRA”. For the same molecule, the “inhibition of cell proliferation” value in test [3] (Compound 100 at 1 μM and 5 μM, day 4, vs vehicle (FIG. 1)) is “little or no inhibition of cell proliferation”; in test [3] (Compound 100 at the three higher doses (10, 20, 50 μM), day 4 (FIG. 1)), “Dose dependent inhibition”. Also, in test [3] (Compound 100 at 1 μM and 5 μM, day 7, vs vehicle (FIG. 1)), the cell growth entry is “enhanced cell growth”. For the same molecule, in test [3] (Compound 100 at 1, 5, 10, 20, 50 μM for 4 or 7 days (FIG. 1 legend)), the inhibition of proliferation result is reported as “inhibits proliferation of neuroblastoma cells”. Besides, in test [3] (Compound 100 at doses less than 50 μM, day 7 (FIG. 1)), the growth inhibition entry is on record as “escape of growth inhibition”. For the same molecule, the “proliferation of xenograft” value in test [2] (Compound 100 1.5 mg/kg daily intraperitoneally for 14 days, 1.5 mg/kg) is given as “inhibits the proliferation of the neuroblastoma cell line SHSY xenograft”; in test [6], “inhibits the proliferation of the medulloblastoma cell line DAOY xenograft tumors; also recorded: inhibit the proliferation of DAOY cells”.

In the case of `CC(C)(C)OC(=O)N1CCN(C(=O)C2C(C(=O)O)[C@H]3CC[C@@H]2O3)CC1` (stereo partly shown) [Compound 102], the “proliferation of xenograft” value in test [6] was “inhibits the proliferation of the medulloblastoma cell line DAOY xenograft tumors; also recorded: inhibit the proliferation of DAOY cells”.

`CC1=C(/C=C/C(C)=C/C=C/C(C)=C\C(=O)O)C(C)(C)CCC1` [13-cis-retinoic acid]: the survival result in the test on neuroblastoma is listed as “survival is improved significantly”.

For `CC1=C(/C=C/C(C)=C/C=C/C(C)=C/C(=O)O)C(C)(C)CCC1` [ATRA, all-trans retinoic acid, reference compound], the “rate of cellular proliferation” value in test [1] (ATRA at 50 μM alone, seven days, vs vehicle (FIG. 8)) was “decreased rates of cellular proliferation as compared to the control”. Further, the “inhibition of cellular proliferation” value in test [1] (ATRA at 50 μM, 20 μM, 5 μM, three days (FIG. 5)) is reported as “inhibits proliferation of medulloblastoma cells; also recorded: inhibited proliferation to varying degrees”; in test [3] (25 μM ATRA alone, 4 or 7 days (FIG. 2)), “did not impair cellular proliferation until after day 4”. The proliferation result in test [3] (10 μM ATRA alone, day 4 (FIG. 3)) is given as “did not prevent proliferation”. The cellular proliferation result is reported as “inhibits cellular proliferation” in test [4] (varying concentration of ATRA (Chang et al., 2007; Gumireddy et al., 2003)) and “can inhibit cellular proliferation” in test [7] (long-term treatment with ATRA, demonstrated previously). Also, in test [7] (short term treatment (1-3 days) with ATRA (Joshi et al 2006)), the “cellular migration and invasion” value is “induced cellular migration and invasion”.

The record behind these values is US20090035292A1, “Use of phosphatases to treat neuroblastomas and medulloblastomas” (priority 2007, published 2009).
